Assay results: US10183059B2, “Method for treating microbial infection” (GENERAL BIOLOGICALS CORPORATION, priority 2015, dated 2019)
No end group written: not given here.

Columns and labels:
C. dubliniensis = type: cell-based
Protocol: (§1) The antimicrobial activities against clinical isolates and drug-resistant strains of P-113 and its derived peptides were examined. The present invention evaluated the effect of P-113 on 15 clinical isolates of fungi belonging to the genus Candida (see Table 1). Clinical isolates were cultivated overnight at 30° C. under shaking in a YPD cultural broth (1% yeast extract, 2% peptone and 2% glucose), cells were centrifuged and washed with YPD, then cultivated again in a YPD culture broth allowing to grow for 5 hours (initial optical density at 600 nm [OD600]˜0.5). Cells were washed with PBS and then collected by centrifugation, redissolved in a culture broth (modified RPMI 1640 medium, LYM), the cell concentration was adjusted to ˜0.1 [OD600]/ml and then treated with P-113. After the mixed solution was cultivated under shaking at 37° C. and 5% CO2 for 24 hours, absorbance measurement (OD value) was performed to determine the minimum inhibitory concentration (MIC).

C. parapsilosis = type: cell-based
Protocol: as §1

[1] = Circular dichroism secondary structure in 85% TFE, BeStSel analysis; type: physicochemical; details: CD analyzed by BeStSel
Protocol: The present invention utilized a Circular Dichroism Spectrometer (AVIV Company) to observe the secondary structure of the antimicrobial peptides. Circular dichoism spectra of P-113 and its derivatives were recorded over the wavelength range of 195-260 nm with readings every 1 nm by using a quartz cuvette having 1 mm optical path length. Ellipticities were represented as mean residue molar ellipticity (MRE). P-113, P-113Du and P-113Tri were dissolved in 85% trifluoroethanol (TFE) solution.

[2] = tested on: Wild type (WT) Candida albicans; test: Salt and pH tolerance of candidacidal activity; type: cell-based
Protocol: Wild type (WT) Candida albicans was cultivated in a YPD medium at 30° C. overnight and then transferred to 5 ml of fresh YPD culture broth, cultivated subsequently for another 5 hours. After the fungi were collected by centrifugation, washed with 12.5 mM sodium acetate twice, redissolved with 12.5 mM NaOAc to yield a fungal concentration of 1.5×10^6 cells/ml. Fifty microliters of liquid fungal suspension was taken out to mix with 50 μl of sequentially diluted antimicrobial peptides and placed in different wells of a 96-well plate allowing to react for 1 hour at 37° C. (as shown in FIG. 4(A). Then, 50 μl of liquid fungal mixture was taken out and 450 μl PBS was added to terminate the reaction. Finally, 25 μl was taken out and inoculated on a solid YPD medium.

[3] = tested on: Candida albicans strain SC5314 biofilms; test: Biofilm cell viability, XTT reduction assay; type: cell-based; details: biofilm cells, 37° C., 1 hr
Protocol: Candida albicans strain SC5314 was cultivated in a YPD medium overnight and then transferred to a fresh YPD culture broth, diluted until the concentration was 3×10^5 cells/ml. 100 μl of liquid fungal suspension was placed in a 96-well plate for cultivation at 37° C. for 24 hours, formed biofilms were washed with sodium acetate (12.5 mM). Then, sequence-diluted antimicrobial peptides P-113, P-113Du and P-113Tri (0-200 μM) were added, reacted at 37° C. for 1 hour, washed with PBS twice. The cellular activity of the biofilms was determined by using XTT (2,3-bis(2-methoxy-4-nitro-5-sulfophenyl)-2H-tetrazolium-5-carboxanilide) reduction assays to analyze the cell survival rate. To perform this reaction, XTT (0.5 mg/ml) and Menadione (0.5 μM) were dissolved in PBS and then added into a 96-well plate formed by biofilms, reacted at 30° C. for 30 minutes, the optical density was measured at wavelength 490 nm (OD490). The cellular activity of the biofilms was represented as a percentage.

[4] = tested on: Candida albicans strain SC5314; test: Fungal suppression at various concentrations and reaction times, colony count; type: cell-based; details: 37° C., 12.5 mM NaOAc
Protocol: To examine the activity of P-113 for killing fungus, fungal suppression assays were carried out at various concentrations or reaction times. Candida albicans strain SC5314 (wild type, WT) was cultivated in the Yeast extract Peptone Dextrose medium (YPD medium) at 30° C. overnight, transferred to 5 ml of fresh YPD culture broth, and then cultivated again for another 5 hours. After fungi were collected by centrifugation, the fungi were washed with 12.5 mM sodium acetate (NaOAc) twice, redissolved in each well of a 96-well plate with 12.5 mM NaOAc (1.5×10^6 cells in 0.1 ml of 12.5 mM NaOAc). Then, the fungi were treated with different concentrations of P-113 for different reaction times at 37° C. Around […] of Phosphate-buffered saline (PBS) was added into each well, took 25 μl of liquid fungi suspension out and inoculated on a solid YPD medium, after being cultivated at 30° C. for 24 hours, the number of colonies were counted.

[5] = tested on: SC5314 strain of Candida albicans; test: Effect of cell wall disrupting agents on peptide activity, CFU; type: cell-based; details: Proteinase K 1 mg/ml, 30 min
Protocol: The SC5314 strain of Candida albicans (wild type or WT) were grown overnight in YPD broth at 30° C. The overnight culture was then subcultured into fresh YPD medium and grown for 5 h. Cells were treated with Proteinase K (1 mg/ml) for 30 min or Zymolyase (5 mg/ml) for 1 h at 30° C., followed by reacting with different concentrations of the peptides for 1 h, respectively. After that, samples were serially diluted in phosphate-buffered saline (PBS) and 15 μl of each diluent was spotted onto YPD agar plates. Colony-forming units were counted after incubation at 30° C. for 24 h. The data were represented as the mean values±SD of three independent experiments.

och1Δ mutant strain = test: Susceptibility of och1Δ mutant, CFU; type: cell-based, Candida albicans; details: och1Δ versus SN250, 1 h
Protocol: The SN250 and och1Δ mutant strains were grown overnight in YPD broth at 30° C. The overnight culture was then subcultured into fresh YPD medium and grown for 5 h. Cells were treated with different concentration of peptides for 1 h. After treatment, samples were serially diluted in PBS and 15 μl of each diluent was spotted onto YPD agar plates. Colony-forming units were counted after 24 h incubation at 30° C. The data were represented as the mean values±SD of three independent experiments.

[6] = tested on: SC5314 strain of Candida albicans; test: Intracellular ROS assay (DHE, MitoSOX Red, flow cytometry); type: cell-based; details: 0.25 μM, 1 h, 37° C.
Protocol: The SC5314 strain of Candida albicans (wild type or WT) were grown overnight in YPD broth at 30° C. The overnight culture was then subcultured into fresh YPD medium and grown for 5 h. Cells were harvested by centrifugation, washed twice with 12.5 mM sodium acetate (NaOAc) and resuspended in 12.5 mM NaOAc to a concentration of 1*10^7 cells/ml. The cells were treated with various AMPs (0.25 μM) for 1 h at 37° C. After treatment, cells were washed twice with 12.5 mM NaOAc. Dihydroethidium (DHE) is a superoxide indicator, and MitoSOX Red (MitoSOX) was introduced for selective detection of superoxide in the mitochondria of live cells. The intracellular ROS was measured using DHE (20 μM) staining for 30 min and MitoSOX Red (5 μM) for 60 min in PBS. Fluorescent detection was performed by flow cytometry.

AKRHHGYKRKFH-NH2 [P-113, AKRHHGYKRKFH-NH2]
Minimum Inhibitory Concentration (C. dubliniensis): 6.25 µg/mL
Minimum Inhibitory Concentration (C. parapsilosis): 0.78 µg/mL
content of the α-helical secondary structure [1]: 2.9%
candidacidal activity ([2]; 12.5 mM sodium acetate, 37° C., 1 hour): exhibited candidacidal activity
candidacidal activity ([2]; 62.25 and 93.75 mM salt): reduced activity
candidacidal activity ([2]; pH 4.5): activity was lost
candidacidal activity ([2]; pH 6 and 8): exhibited candidacidal activity
concentration causing 50% reduction in the metabolic activity (50% RMA) [3]: > 300 µg/mL
anti-Candida activity, dependence on concentration and time [4]: time-dependent and dose-dependent
candidacidal activity after proteinase K treatment of cells [5]: failed to kill C. albicans
susceptibility of och1Δ mutant to peptide (och1Δ mutant strain): resistant
intracellular ROS formation [6]: induced intracellular ROS formation
